In patent US20190192699A1, “NUCLEAR IMAGING AND RADIOTHERAPEUTICS AGENTS TARGETING CARBONIC ANHYDRASE IX AND USES THEREOF” (THE JOHNS HOPKINS UNIVERSITY, priority 2016, published 2019):
Several values for one entry are separate records, joined by “and”; a condition that tells them apart may be missing. Equal entries are not always repeated. Entries after “also recorded” stand apart in the source; their conditions may differ.

How the values were obtained:
SK-RC-52 xenografts = assay: Biodistribution of [111In]XYIMSR-01 and [177Lu]XYIMSR-01; type: in vivo, mice
Experimental: (§1) Cell Lines and Mouse Models. Animal experiments were performed in accordance with protocols approved by the Johns Hopkins Animal Care and Use Committee (ACUC). Six-week-old female NOD/SCID mice were purchased from the Animal Resource Core of the Sidney Kimmel Comprehensive Cancer Center of Johns Hopkins and were subcutaneously injected in the lower left flank or upper right flank with 1×10^6 SK-RC-52 cells in RPMI 1640 GlutaMAX™ media (Life Technologies, Frederick, Md.) supplemented with 1% fetal bovine serum (FBS). Mice were monitored for tumor size and used for SPECT/CT imaging when the size of the tumor reached 100 mm^3.
Biodistribution of [^111In]XYIMSR-01 and [^177Lu]XYIMSR-01. Mice bearing SK-RC-52 xenografts at lower left flank were injected intravenously with 740 kBq (20 μCi) of [^111In]XYIMSR-01, or [^177Lu]XYIMSR-01 in 200 μL of PBS. For competitive blocking, same tumor bearing mice were injected with 740 kBq (20 μCi) of [^111In]XYIMSR-01 and 200 nmole of 1 in 200 μL of PBS. At 1 h, 4 h, 8 h, 24 h and 48 h post-injection, mice were sacrificed by cervical dislocation and the blood was immediately collected by cardiac puncture. Heart, lungs, pancreas, spleen, fat, brain, muscle, small intestines, liver, stomach, kidney, urinary bladder, and tumor were collected. Each organ was weighed and the tissue radioactivity was measured with an automated gamma counter (1282 Compugamma CS, Pharmacia/LKBNuclear, Inc., Mt. Waverly, Vic. Australia). The percentage of injected dose per gram of tissue (% ID/g) was calculated by comparison with samples of a standard dilution of the initial dose. All measurements were corrected for radioactive decay.
Data were expressed as mean±standard deviation (SD). Prism software (GraphPAD, San Diego, Calif.) was used to determine statistical significance. Statistical significance was calculated using a paired t test. P-values […] were considered significant.

[1] = tested on: CAIX-expressing SK-RC-52 tumors; assay: SPECT/CT imaging of [111In]XYIMSR-01; type: in vivo, mice; conditions: 14.8 MBq (400 μCi) via tail vein
Experimental: as §1
SPECT/CT imaging of [^111In]XYIMSR-01. Mice harboring subcutaneous SK-RC-52 tumors with the lower left flank were injected with 14.8 MBq (400 μCi) of [^111In]XYIMSR-01 in 250 μL of PBS (pH=7.0) intravenously (tail vein). Anesthesia was then induced with 3% isofluorane and maintained at 2% isoflurane. Physiologic temperature was maintained with an external light source while the mouse was on the gantry. Imaging employed a CT-equipped Gamma Medica-Ideas SPECT scanner (Northridge, Calif.). SPECT data were acquired in 64 projections at 65 s per projection using medium energy pinhole collimators. A CT scan was performed in 512 projections at the end of each SPECT scan for anatomic co-registration. […]

[2] = 24 hr + Block (200 nmole of 1 co-injected)
[3] = 48 hr + Block (200 nmole of 1 co-injected)

## CC(CCC(=O)N[C@@H](CC(=O)N[C@@H](CC(=O)N[C@@H](CCCCn1cc(CCCC(=O)Nc2nnc(S(N)(=O)=O)s2)nn1)C(=O)NCCOCCOCCNC(=O)CN1CCN(CC(=O)[O-])CCN(CC(=O)[O-])CCN(CC(=O)[O-])CC1)C(=O)O)C(=O)O)(c1ccc(O)cc1)c1ccc(O)cc1.[111In+3] [[^111In]XYIMSR-01]
SK-RC-52 xenografts; [2]
  Biodistribution: Lung: 0.12 ± 0.02 % ID/g
  Biodistribution: Muscle: 0.02 ± 0.00 % ID/g
  Biodistribution: Pancreas: 0.03 ± 0.00 % ID/g
  Biodistribution: Small intestine: 0.08 ± 0.01 % ID/g
  Biodistribution: Spleen: 0.08 ± 0.01 % ID/g
  Biodistribution: Stomach: 0.14 ± 0.02 % ID/g
  Biodistribution: Tumor: 1.41 ± 0.20 % ID/g
  Tumor/Blood ratio: 45.2 ± 9.7
  Tumor/Kidney ratio: 2.1 ± 0.3
  Tumor/Muscle ratio: 91.4 ± 11.1
SK-RC-52 xenografts; 24 hr post-injection
  Biodistribution: Bladder: 0.74 ± 0.17 % ID/g
  Biodistribution: Blood: 0.15 ± 0.02 % ID/g
  Biodistribution: Brain: 0.71 ± 0.85 % ID/g
  Biodistribution: Fat: 0.28 ± 0.19 % ID/g
  Biodistribution: Heart: 1.16 ± 0.20 % ID/g
  Biodistribution: Kidney: 15.29 ± 1.69 % ID/g
  Biodistribution: Liver: 3.02 ± 3.46 % ID/g
  Biodistribution: Lung: 11.01 ± 3.71 % ID/g
  Biodistribution: Muscle: 0.35 ± 0.12 % ID/g
  Biodistribution: Pancreas: 0.69 ± 0.18 % ID/g
  Biodistribution: Small intestine: 2.11 ± 0.33 % ID/g
  Biodistribution: Spleen: 0.69 ± 0.39 % ID/g
  Biodistribution: Stomach: 3.31 ± 1.25 % ID/g
  Biodistribution: Tumor: 25.6 % ID/g and 25.62 ± 17.67 % ID/g
  Tumor/Blood ratio: 178.1±145.4 and 178
  Tumor/Kidney ratio: 1.7±1.2 and 1.7
  Tumor/Muscle ratio: 68.4±29.0 and 68
SK-RC-52 xenografts; [3]
  Biodistribution: Bladder: 0.14 ± 0.03 % ID/g
  Biodistribution: Blood: 0.03 ± 0.00 % ID/g
  Biodistribution: Brain: 0.03 ± 0.01 % ID/g
  Biodistribution: Fat: 0.03 ± 0.01 % ID/g
  Biodistribution: Heart: 0.04 ± 0.01 % ID/g
  Biodistribution: Kidney: 0.45 ± 0.09 % ID/g
  Biodistribution: Liver: 0.13 ± 0.04 % ID/g
  Biodistribution: Lung: 0.09 ± 0.02 % ID/g
  Biodistribution: Muscle: 0.02 ± 0.00 % ID/g
  Biodistribution: Pancreas: 0.03 ± 0.01 % ID/g
  Biodistribution: Small intestine: 0.08 ± 0.02 % ID/g
  Biodistribution: Spleen: 0.11 ± 0.03 % ID/g
  Biodistribution: Stomach: 0.14 ± 0.03 % ID/g
  Biodistribution: Tumor: 1.22 ± 0.54 % ID/g
  Tumor/Blood ratio: 45.4 ± 13.8
  Tumor/Kidney ratio: 2.7 ± 0.8
  Tumor/Muscle ratio: 75.1 ± 17.7
SK-RC-52 xenografts; 48 hr post-injection
  Biodistribution: Bladder: 0.38 ± 0.18 % ID/g
  Biodistribution: Blood: 0.06 ± 0.02 % ID/g
  Biodistribution: Brain: 0.41 ± 0.05 % ID/g
  Biodistribution: Fat: 0.25 ± 0.08 % ID/g
  Biodistribution: Heart: 0.84 ± 0.16 % ID/g
  Biodistribution: Kidney: 8.78 ± 1.89 % ID/g
  Biodistribution: Liver: 1.65 ± 0.26 % ID/g
  Biodistribution: Lung: 9.22 ± 1.25 % ID/g
  Biodistribution: Muscle: 0.39 ± 0.28 % ID/g
  Biodistribution: Pancreas: 0.59 ± 0.18 % ID/g
  Biodistribution: Small intestine: 1.22 ± 0.44 % ID/g
  Biodistribution: Spleen: 0.67 ± 0.13 % ID/g
  Biodistribution: Stomach: 1.82 ± 0.43 % ID/g
  Biodistribution: Tumor: 13.9 % ID/g and 13.92 ± 6.67 % ID/g
  Tumor/Blood ratio: 212.0 ± 41.4
  Tumor/Kidney ratio: 1.5 ± 0.5
  Tumor/Muscle ratio: 52.0 ± 21.0
[1]
  SPECT/CT tumor imaging finding: radiotracer uptake in tumor as early as 1 h post-injection; also recorded: radiotracer uptake was observed within the tumors at 1 h post-injection; also recorded: enabled specific imaging of CAIX-expressing SK-RC-52 tumors
